The test system of data set [1] is receptor type protein tyrosine phosphatase F (PTPRF). Further details: method as in PMID 35636503. As to conditions: cited from earlier work.
Data set [2] deals with rats trained to self-administer amphetamine iv. Briefly: Amphetamine self-administration. Type of data set: in vivo. As to conditions: rat. How it is done: (§1) Young adult Sprague-Dawley rats (Charles River Laboratories, Raleigh, NC, USA) were singly housed on a reverse 12:12 day night cycle and tested during their active (dark) phase in studies approved by the Duke Institutional Animal Care and Use Committee. Rats had catheters surgically implanted in their jugular veins to provide access for self-administration by IV infusion. Briefly, rats were anesthetized with i.p. injections of ketamine (Fort Dodge Animal Health, Fort Dodge, IA, USA; […]) with the addition of Dexdomitor (Pfizer, New York, NY, USA; 0.15 mg/kg) which is a sedative and analgesic agent. Before surgery, ketoprofen (5 mg/kg, s.c.) was administered to reduce post-operative pain and inflammation. A plastic SoloPort was attached intraoperatively to a polyurethane catheter and inserted into a subcutaneous interscapular pocket and sutured to underlying fascia.
(§2) The day following surgery, the rats began self-administration sessions with amphetamine (0.1 mg/kg/infusion, iv) or remifentanil (0.3 μg/kg/infusion, iv) as reinforcers. […] Each infusion was followed by a 20-sec timeout in which the house light goes on and cue light goes out. Responses were recorded but not reinforced during this interval. […] There were five sessions of training for self-administration before the onset of pentilludin drug treatment sessions. All of the animals had the same number of training sessions to provide all with equal testing history. Each infusion session lasted for one hour. Animals were tested not more than once/day between 9 AM and 4 PM.
(§3) At the end of each study catheter patency was confirmed by assessing sedation following methohexital (brevital) administration through the catheter. […] Self-administration results, differences from baseline levels, were assessed for statistical for significance with analysis of variance. To control for baseline differences in self-administration, the self-administration with pentilludin or vehicle treatment was analyzed as a difference from each animal’s self-administration on the last two sessions of baseline training. […]

Data set [3] relates to mice. As to conditions: cited from earlier work.
Data set [4] relates to nonreceptor type protein tyrosine phosphatase 1 (PTPN1/ PTP1B). Details: method as in PMID 35636503. As to conditions: cited from earlier work.
Data set [5] is described as follows: Metabolism in rat liver microsomes. The class given is in vitro ADME.
Data set [6] can be described thus: Plasma pentilludin levels after acute 20 mg/kg iv or po administration. The class given is in vivo. Particulars: rat. How it is done: Proteins in 50 μL plasma collected with K2EDTA as anti-coagulant were precipitated by adding 5 μL of acetonitrile with 0.5% v/v ascorbate, 200 μL of acetonitrile containing 20 ng/ml tolbutamide internal standard with 0.5% ascorbate was added, the mixture was vortexed for 1 min, centrifuged @ 4000 rpm for 15 mins and peaks in 8 μL of the supernatant were identified using an AB Sciex Triple Quad 5500 LC-MS/MS (electrospray, negative ions, Analyst 1.6.3 software) and a Waters Acquity Ultra Performance LC System with 50 × 2.1 mm Acuity UPLC Beh C18 1.7 μm column eluted for 2.5 min @ 22°C @ 0.5 ml/min with Mobile Phase A (5mM NH4OAc in water with 0.05% formic acid) and mobile phase B (acetonitrile with 0.1% formic acid) with changes in % A as follows: 60, 10, 5, and 60. Standards were quantitated at concentrations ranging from 1– 2000 ng/mL.

Data set [7] concerns receptor type protein tyrosine phosphatase J (PTPRJ). Details: method as in PMID 35636503. As to conditions: cited from earlier work.
For the next data set, the system named is micronucleus test. Briefly: micronucleus test. Type of data set: cell-based. As to conditions: in vitro.
A short description of data set [8]: Solubility in dosing vehicles. Type of data set: physicochemical. Particulars: read-out: soluble at concentrations up to. How it is done:
Pentilludin powder was >97.5% pure following synthesis and when reanalyzed (Certificate of Analysis, GLP) 1 ½ and 2 ½ years after synthesis. Pentilludin was soluble in 6.82% Captisol in 60:40 PEG600/water (the vehicle used for initial toxicology experiments) and in PEG600 (the vehicle used for self-administration and Good Laboratory Practices testing) at concentrations up to 100 mg/ml with gentle heating.

Data set [9] can be described thus: Metabolism in human plasma. Type of data set: in vitro ADME.
Another data set concerns rats. Description: Lever pressing for self-administration of food pellets. As to conditions: rat, eight sessions of testing. Type of data set: in vivo.
Data set [10] in a line: Metabolism in human liver microsomes. The class given is in vitro ADME. (In general: Microsomes from liver hold many membrane-bound enzymes, among them those of drug oxidation.)
A further data set concerns dogs. Briefly: Two week oral dosing in dogs, kidney pathology. Type of data set: in vivo, dog. As to conditions: 15 mg/kg/d po for two weeks.
The nature of the next data set: Metabolism in rat plasma. The class given is in vitro ADME.
Data set [11] deals with targets of the NIDA-EUROFINS assays (virtually all targets of currently marketed drugs). Further details: method as in PMID 34863978. Particulars: cited from earlier work.
Data set [12] relates to rats trained to self-administer remifentanil iv. Description: Remifentanil self-administration. Type of data set: in vivo. As to conditions: rat. Here is the method: as §1, §2, §3
The next data set relates to Ames test. Description: Ames test. The class given is cell-based. As to conditions: in vitro. On the technique in general: The Ames test uses bacterial strains that need an amino acid and regain growth without it when mutated back.
The nature of data set [13]: Repeated two week daily oral administration toxicity (observational battery, weight, chemistry, hematology, histopathology). As to conditions: rat.
The test system of a further data set is recombinant paraoxonase. Briefly: Interaction with recombinant paraoxonase. Type of data set: in vitro ADME. As to conditions: initial work.
A further data set has as its target hERG channels (Homo sapiens, UniProt Q12809). Description: hERG channel activity. As to conditions: in vitro. On the technique in general: The hERG channel carries a current that helps repolarise heart muscle cells.
Data set [14] has as its target receptor type protein tyrosine phosphatase D (PTPRD). Further details: method as in PMID 34863978. Particulars: likely irreversible; read-out: potency in inhibiting PTPRD's phosphatase; cited from earlier work.
In data set [15] the test system is receptor type protein tyrosine phosphatase S (PTPRS). Details: method as in PMID 35636503. As to conditions: cited from earlier work.
For data set [16], the system named is mice. Further details: method as in PMID 30348770. Particulars: cited from earlier work.
In data set [17] the test system is mice. Details: method as in PMID 30348770. As to conditions: cited from earlier work. The source holds these as a separate data set.
Where [18] appears, read: 20 mg/kg sc prior to every other session, 20 mg/kg.

SMILES strings stand for the structures. pIC50: −log10 of the molar value. “Also recorded” adds a separate entry of the source. Where two headings read alike, the source gives them in different places.

Chain of hERG channels (Q12809 whole entry): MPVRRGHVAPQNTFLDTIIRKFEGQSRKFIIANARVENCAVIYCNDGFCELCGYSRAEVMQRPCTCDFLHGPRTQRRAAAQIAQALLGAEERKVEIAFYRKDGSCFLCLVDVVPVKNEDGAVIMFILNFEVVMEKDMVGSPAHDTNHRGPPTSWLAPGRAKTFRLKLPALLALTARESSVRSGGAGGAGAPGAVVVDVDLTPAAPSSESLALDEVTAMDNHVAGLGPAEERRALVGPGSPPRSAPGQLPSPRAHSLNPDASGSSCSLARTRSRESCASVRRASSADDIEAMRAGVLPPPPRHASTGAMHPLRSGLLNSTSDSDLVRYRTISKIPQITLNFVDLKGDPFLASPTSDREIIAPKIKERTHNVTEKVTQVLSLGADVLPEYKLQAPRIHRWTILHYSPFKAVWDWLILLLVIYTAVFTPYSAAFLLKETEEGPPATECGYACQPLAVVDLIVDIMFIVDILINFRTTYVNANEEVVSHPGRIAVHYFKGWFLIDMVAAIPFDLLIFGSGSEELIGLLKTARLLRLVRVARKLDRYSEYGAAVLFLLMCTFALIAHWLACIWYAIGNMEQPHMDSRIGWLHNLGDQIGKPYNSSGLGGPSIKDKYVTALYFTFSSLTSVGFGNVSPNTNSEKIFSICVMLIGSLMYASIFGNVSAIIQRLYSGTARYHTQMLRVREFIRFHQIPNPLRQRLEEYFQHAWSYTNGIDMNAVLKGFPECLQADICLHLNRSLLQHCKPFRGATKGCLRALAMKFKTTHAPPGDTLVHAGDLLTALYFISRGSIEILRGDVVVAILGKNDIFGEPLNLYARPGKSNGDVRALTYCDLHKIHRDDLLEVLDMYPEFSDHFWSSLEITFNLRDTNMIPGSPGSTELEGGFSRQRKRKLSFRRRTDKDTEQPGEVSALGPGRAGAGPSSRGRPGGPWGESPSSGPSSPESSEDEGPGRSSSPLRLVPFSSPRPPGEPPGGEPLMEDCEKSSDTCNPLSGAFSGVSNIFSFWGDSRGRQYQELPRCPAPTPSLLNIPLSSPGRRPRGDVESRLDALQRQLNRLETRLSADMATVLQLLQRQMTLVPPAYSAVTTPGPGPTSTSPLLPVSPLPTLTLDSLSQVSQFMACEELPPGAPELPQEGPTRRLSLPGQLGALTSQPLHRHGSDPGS

Take `COc1c(OCC2CCCC2)cc2c(c1C=O)CC(O)OC2=O` (stereo not drawn) [Pentilludin]: the “potency at PTPRF” value in data set [1] is “some potency”. In addition, the “reduction of amphetamine self-administration overall relative to controls” value in data set [2] (20 mg/kg sc prior to every other session, 12 sessions) turned out to be 6.2 infusions per session. Further, the “effect on amphetamine self-administration” value in data set [2] (setting [18]) is given as “substantially reduces; also recorded: robustly reduced”. The “decrease of amphetamine self-administration from last acquisition sessions” value in data set [2] (20 mg/kg sc, last two of 12 sessions) came to 23%. In the data set with mice [3] (daily ≥ 150 mg/kg po), the “oral intake and weight” value is “reduce oral intake and lose weight starting on about the 4th day”. In addition, the “toxicity on weeks-long repeated treatments” value with mice [3] (pentilludin doses up to 100 mg/kg/d po) is given as “little evidence for toxicity”. Besides, the weight loss result in the data set with mice [3] (repeated doses of 100 mg/kg/day) is reported as “no weight loss”. In addition, the “potency at PTPN1/ PTP1B” value in data set [4] is reported as “less potency”. The metabolism result in [5] is “only modest metabolism”; in [9], “robust metabolism”; in data set [10], “only modest metabolism”; in the data set “Metabolism in rat plasma”, “robust metabolism”. Also, in data set [6] (plasma, po, 20 mg/kg, data from 0.5 to 4h, read-out: bioavailability for po pentilludin in PEG600), the bioavailability (commonly dose-corrected exposure relative to a reference, in per cent) stood at 15%. Further, the concentration at 0.08 h in data set [6] (plasma, IV 20.0 mg/kg, 0.08 h) amounted to 62.2 µg/mL. In addition, the concentration at 0.5 h turned out to be 2.92 µg/mL in data set [6] (plasma, IV 20.0 mg/kg, 0.50 h) and 0.449 µg/mL in data set [6] (plasma, PO 20.0 mg/kg in PEG600, 0.50 h). The concentration at 4 h in [6] (plasma, IV 20.0 mg/kg, 4.0 h) is 0.00498 µg/mL; in data set [6] (plasma, PO 20.0 mg/kg in PEG600, 4.0 h), 0.0171 µg/mL. The molecule further gave a concentration at 2 h in [6] (plasma, PO 20.0 mg/kg in PEG600, 2.0 h) of 0.146 µg/mL. Also, the “terminal half-life of plasma pentilludin” value in data set [6] (20 mg/kg) is “between one and two”. Besides, the “signs of gross toxicity” value in [6] (acute 20 mg/kg) is given as “no signs of gross toxicity”. Also, in [7], the “potency at PTPRJ” value was “less potency”. Further, in the data set with micronucleus test, the “activity in micronucleus test” value was “no in vitro activities”. The solubility in data set [8] (6.82% Captisol in 60:40 PEG600/water (dosing vehicle), 6.82% Captisol in 60:40 PEG600/water, gentle heating) was at most 100 mg/mL; in data set [8] (PEG600 (dosing vehicle), PEG600, gentle heating), at most 100 mg/mL. In addition, the “food pellets per one-hour session” value with rats came to 85.6 ± 6.3 food pellets. In the data set on dogs, the kidney pathology entry is on record as “fail to display any kidney pathology”. Moreover, the values for the pIC50 in data set [11] and in data set [14] were at most 4.00 and 6.16, respectively. Also, the “activity at targets for currently-licensed drugs” value in data set [11] (in vitro) is “no in vitro activities”. The “effect on remifentanil self-administration” value in data set [12] (setting [18]) is listed as “more modestly reduces; also recorded: significantly attenuated the increase”. Also, the “smaller increase in remifentanil self-administration relative to vehicle-treated controls” value in [12] (20 mg/kg sc, 11th and 12th sessions) was found to be 26.5%. In addition, the “responding on the control lever” value in [12] (remifentanil self-administration) is listed as “did not differ”. In the data set with Ames test, the “activity in Ames test” value is given as “no in vitro activities”. In addition, in data set [13] (150 mg/kg/d), the “serum chemistry abnormalities in measures relating to renal function” value is on record as “no serum chemistry abnormalities”. Besides, the proteinuria result in [13] (150 mg/kg/d po two weeks, 150 mg/kg/day) was “proteinuria in rats treated with 150 mg/kg/d that recovered within two weeks of the end of pentilludin administration; also recorded: modest and reversible proteinuria”. For the same molecule, the “effects on the observational battery, weight, plasma chemistries or hematological assessments” value in [13] (50 or 75 mg/kg po daily in PEG600, two weeks) is “no significant effects”. Besides, the kidney histopathology entry in data set [13] (daily doses for two weeks, also found with vehicle) is recorded as “basophilic lesions in the kidneys of a number of the rats”. Further, in [13] (doses up to 100 mg/kg/d), the “alterations in serum chemistries related to renal function” value is “None of the rats treated with doses up to 100 mg/kg/d displayed alterations”. The “behavioral, hematologic or serum chemistry abnormalities” value in data set [13] (doses up to 100 mg/kg/day for two weeks) is listed as “have not been found to display behavioral, hematologic or serum chemistry abnormalities”. In addition, the effects on histopathology entry in data set [13] (good laboratory practices toxicology study, 50 or 75 mg/kg/d po two weeks) was “no pentilludin-associated effects detected”. Also, the “effect on plasma chemistry, hematology and behavioral observation batteries” value in data set [13] (good laboratory practices work) is recorded as “lack of effect”. In addition, the “interaction with recombinant paraoxonase” value in the data set on recombinant paraoxonase is listed as “interacts avidly”. For the same molecule, the “activity at hERG channels” value at hERG channels was “no in vitro activities”. Also, in data set [15], the “potency at PTPRS” value is “some potency”.

Regarding `CCCCOc1cc2c(c(C=O)c1OC)CC(O)OC2=O` (stereo not drawn) [7-BIA], the “toxicity on weeks-long repeated treatments” value in the data set with mice [3] was “little evidence for toxicity”. Moreover, the “stimulant reward, cocaine conditioned place preference” value in the data set with mice [16] is “reduces stimulant reward”. Besides, the “stimulant reward, cocaine self-administration” value in the data set on mice [17] is “reduces stimulant reward”.

The values are drawn from doi:10.1101/2025.07.28.667221, “Pentilludin reduces rat amphetamine and remifentail self-administration with good pharmacologic and toxicologic profiles” (bioRxiv, 2025).
